# In ChEMBL document CHEMBL6092203, “Discovery of Novel PROTAC-Based HPK1 Degraders with High Potency and Selectivity for Cancer Immunotherapy” (J Med Chem, 2024):
# Calls of active or inactive are those of the source. No cut-off for these calls is given here.
# Experiments:
# [1] = biological target: T1, Protein cereblon/Mitogen-activated protein kinase kinase kinase kinase 1 (Homo sapiens, UniProt Q92918+Q96SW2); test: PROTAC activity at CRBN/HPK1 in human Jurkat cells assessed as maximum degradation incubated for 24 hrs by Western blotting analysis; type: cell-based
# T1 sequence (Q92918 whole entry, looked up): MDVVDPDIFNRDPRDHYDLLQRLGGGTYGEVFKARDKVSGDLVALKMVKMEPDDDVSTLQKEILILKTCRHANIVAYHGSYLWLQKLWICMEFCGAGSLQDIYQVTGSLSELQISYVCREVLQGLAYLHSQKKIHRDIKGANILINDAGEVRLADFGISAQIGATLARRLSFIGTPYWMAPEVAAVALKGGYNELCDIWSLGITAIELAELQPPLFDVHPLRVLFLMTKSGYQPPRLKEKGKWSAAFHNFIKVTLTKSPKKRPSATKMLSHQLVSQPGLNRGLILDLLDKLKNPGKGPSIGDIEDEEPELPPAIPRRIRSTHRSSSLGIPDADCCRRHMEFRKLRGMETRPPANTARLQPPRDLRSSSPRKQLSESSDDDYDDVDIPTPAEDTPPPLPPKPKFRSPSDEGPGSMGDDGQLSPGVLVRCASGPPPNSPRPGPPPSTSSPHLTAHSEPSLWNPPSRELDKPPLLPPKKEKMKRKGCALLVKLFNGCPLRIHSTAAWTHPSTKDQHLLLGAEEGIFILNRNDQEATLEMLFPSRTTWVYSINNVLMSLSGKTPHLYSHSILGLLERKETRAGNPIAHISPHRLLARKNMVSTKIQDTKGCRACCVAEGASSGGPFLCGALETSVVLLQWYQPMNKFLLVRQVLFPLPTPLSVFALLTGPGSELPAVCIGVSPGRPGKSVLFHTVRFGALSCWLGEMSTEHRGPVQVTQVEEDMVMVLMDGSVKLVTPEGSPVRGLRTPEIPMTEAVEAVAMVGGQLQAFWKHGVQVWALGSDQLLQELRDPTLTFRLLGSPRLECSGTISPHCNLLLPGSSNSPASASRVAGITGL
# T1 sequence (Q96SW2 whole entry, looked up): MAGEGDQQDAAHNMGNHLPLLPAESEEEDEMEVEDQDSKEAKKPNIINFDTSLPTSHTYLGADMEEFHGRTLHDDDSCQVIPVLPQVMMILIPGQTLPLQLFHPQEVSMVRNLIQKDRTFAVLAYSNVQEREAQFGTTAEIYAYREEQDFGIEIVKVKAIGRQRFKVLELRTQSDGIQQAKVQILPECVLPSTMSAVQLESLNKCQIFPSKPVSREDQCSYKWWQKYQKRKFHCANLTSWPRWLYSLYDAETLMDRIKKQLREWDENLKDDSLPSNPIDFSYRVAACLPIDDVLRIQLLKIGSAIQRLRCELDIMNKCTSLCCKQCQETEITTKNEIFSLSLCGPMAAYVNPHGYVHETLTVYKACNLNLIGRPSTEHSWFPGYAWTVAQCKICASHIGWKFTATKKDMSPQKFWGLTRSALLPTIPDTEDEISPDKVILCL
# MC-38 [2] = test: Antitumor activity against mouse MC38 cells implanted in po dosed C57BL/6J mouse assessed as tumor growth inhibition administered for 3 to 4 weeks; type: functional, organism-based; settings: time 3-4 weeks
# in vivo [3] = settings: male, Sprague-Dawley, rat, po, 100 mg/kg
# Jurkat [4] = test: Induction of GCK degradation in human Jurkat cells at 1 to 1000 nM incubated for 24 hrs by Western blotting analysis; type: cell-based; settings: dose 1-1000 nM
# in vivo [5] = settings: male, Sprague-Dawley, rat, po, 2 mg/kg
# [6] = Metabolic stability in monkey liver microsomes assessed as intrinsic clearance at 1 uM incubated for 45 mins by LC-MS/MS method; type: ADME, Macaca mulatta, Microsome; settings: rhesus monkey, read-out: CLH
# [7] = Tmax in male Sprague-Dawley rat at 2 mg/kg/day, po measured at day 1; type: ADME, organism-based; settings: in vivo, time 1 day
# MC-38 [8] = test: Synergistic antitumor activity against mouse MC38 cells implanted in C57BL/6J mouse assessed as reduction in tumor weight at 1 mg/kg, po bid administered for 3 to 4 weeks in presence of 5 mg/kg anti-PD1 and measured twice a week (reference value: 1.79 +/- 0.24 g); type: functional; settings: time 3-4 weeks
# [9] = Apparent volume of distribution in mouse at 2 mg/kg, iv measured upto 24 hrs by LC-MS analysis; type: ADME, organism-based; settings: in vivo
# MC-38 [10] = test: Antitumor activity against mouse MC38 cells implanted in C57BL/6J mouse assessed as reduction in tumor weight at 100 mg/kg, po QD administered for 3 to 4 weeks (reference value: 1.79 +/- 0.24 g); type: functional; settings: time 3-4 weeks
# MC-38 [11] = test: Antitumor activity against mouse MC38 cells implanted in C57BL/6J mouse assessed as tumor growth inhibition at 0.1 mg/kg, po BID measured after 4 weeks; type: functional; settings: MC-38, 672 h, read-out: TGI
# in vivo [12] = settings: female, Sprague-Dawley, rat, po, 30 mg/kg
# MC-38 [13] = test: Antitumor activity against mouse MC38 cells implanted in C57BL/6J mouse assessed as reduction in tumor volume at 0.5 mg/kg, po BID administered for 3 to 4 weeks (reference value: 1549.22 +/- 217.92 mm3); type: functional; settings: time 3-4 weeks
# [14] = Clearance in C57BL/6J mouse at 2 mg/kg, iv measured upto 24 hrs by LC-MS analysis; settings: in vivo
# [15] = Drug distribution in rat gastrointestinal tract measured after 0.5 to 6 hrs; type: ADME, tissue-based; settings: in vivo, time 0.5-6 hrs
# [16] = Drug distribution in rat brain measured after 2 hrs; type: ADME, tissue-based; settings: in vivo
# [17] = Drug metabolism in rat hepatocytes assessed as phase 2 metabolites formation at 10 uM incubated for 120 mins by UHPLC-UV/MS/MS method; type: ADME, cell-based, Hepatocyte; settings: 2 h
# in vitro [18] = settings: rhesus monkey, hepatocytes
# MC-38 [19] = test: Synergistic antitumor activity against mouse MC38 cells implanted in C57BL/6J mouse assessed as tumor growth inhibition at 100 mg/kg, po QD measured after 4 weeks in presence of 5 mg/kg anti-PD1 and measured twice a week; type: functional; settings: MC-38, 672 h, read-out: TGI
# in vitro [20] = settings: dog, liver microsomes
# [21] = Drug distribution in rat thyroid gland measured after 0.5 to 6 hrs; type: ADME, tissue-based; settings: in vivo, time 0.5-6 hrs
# [22] = Tmax in male Sprague-Dawley rat at 100 mg/kg/day, po measured at day 1; type: ADME, organism-based; settings: in vivo, time 1 day
# [23] = Tmax in female Sprague-Dawley rat at 30 mg/kg/day, po measured at day 14; type: ADME, organism-based; settings: in vivo, time 14 day
# [24] = Drug distribution in rat lymph node measured after 0.5 to 6 hrs; type: ADME, tissue-based; settings: in vivo, time 0.5-6 hrs
# Cytochrome P450 2B6 = biological target: T2, Cytochrome P450 2B6 (Homo sapiens, UniProt P20813); test: Inhibition of CYP2B6 in human liver microsomes using bupropion as substrate in presence of NADPH; type: ADME, Microsome
# T2 sequence (P20813 whole entry): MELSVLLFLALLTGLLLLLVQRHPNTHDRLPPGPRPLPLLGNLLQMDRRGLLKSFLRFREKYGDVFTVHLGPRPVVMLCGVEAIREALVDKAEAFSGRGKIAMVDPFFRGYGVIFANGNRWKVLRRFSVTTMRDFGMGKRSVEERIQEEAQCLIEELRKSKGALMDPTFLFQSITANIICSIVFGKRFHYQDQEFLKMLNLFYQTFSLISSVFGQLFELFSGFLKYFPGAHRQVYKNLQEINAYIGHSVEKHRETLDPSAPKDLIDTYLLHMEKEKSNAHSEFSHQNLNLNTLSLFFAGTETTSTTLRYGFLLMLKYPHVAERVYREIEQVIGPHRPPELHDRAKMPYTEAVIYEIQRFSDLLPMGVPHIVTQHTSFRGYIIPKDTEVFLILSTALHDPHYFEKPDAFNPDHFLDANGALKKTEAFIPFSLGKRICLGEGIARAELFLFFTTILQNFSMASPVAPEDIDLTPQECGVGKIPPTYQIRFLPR
# Cytochrome P450 2C19 = Cytochrome P450 2C19 (Homo sapiens, UniProt P33261); test: Inhibition of CYP2C19 in human liver microsomes using S-mephenytoin as substrate in presence of NADPH; type: ADME, Microsome
# Chain of Cytochrome P450 2C19 (P33261 whole entry): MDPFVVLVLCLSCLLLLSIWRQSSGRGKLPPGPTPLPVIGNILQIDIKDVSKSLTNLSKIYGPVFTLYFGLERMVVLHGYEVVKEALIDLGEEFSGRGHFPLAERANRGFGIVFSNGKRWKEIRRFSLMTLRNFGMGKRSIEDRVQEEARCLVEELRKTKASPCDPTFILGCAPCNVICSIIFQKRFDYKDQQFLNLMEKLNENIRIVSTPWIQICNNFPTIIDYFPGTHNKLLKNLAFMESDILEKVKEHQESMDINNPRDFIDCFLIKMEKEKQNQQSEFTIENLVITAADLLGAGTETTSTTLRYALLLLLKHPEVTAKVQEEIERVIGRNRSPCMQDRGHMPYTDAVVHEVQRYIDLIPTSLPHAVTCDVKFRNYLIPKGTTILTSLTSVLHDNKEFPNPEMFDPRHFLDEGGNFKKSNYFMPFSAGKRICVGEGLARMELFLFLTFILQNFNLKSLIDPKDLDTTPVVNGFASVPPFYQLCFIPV
# [25] = biological target: T1, Protein cereblon/Mitogen-activated protein kinase kinase kinase kinase 1; test: PROTAC activity at CRBN/HPK1 in human Jurkat cells assessed as HPK1 degradation at 300 nM measured after 24 hrs by Western blotting analysis; type: cell-based
# [26] = Clearance in mouse relative to hepatic blood flow; settings: in vivo
# [27] = Plasma protein binding in mouse at 10 uM incubated for 6 hrs by equilibrium dialysis based LC-MS/MS method; type: ADME, cell-free; settings: read-out: PPB (converted)
# in vivo [28] = settings: C57BL/6J, mouse, po, 10 mg/kg
# Jurkat [29] = test: Induction of p-SLP76 at Ser376 protein degradation in human Jurkat cells incubated for 24 hrs by Western blotting analysis relative to control; type: cell-based
# in vivo [30] = settings: female, Sprague-Dawley, rat, po, 100 mg/kg
# MC-38 [31] = test: Synergistic antitumor activity against mouse MC38 cells implanted in C57BL/6J mouse assessed as reduction in tumor volume at 1 mg/kg, po bid administered for 3 to 4 weeks in presence of 5 mg/kg anti-PD1 and measured twice a week (reference value: 1549.22 +/- 217.92 mm3); type: functional; settings: time 3-4 weeks
# [32] = Tmax in Sprague-Dawley rat at 1 mg/kg, po measured upto 24 hrs by LC-MS analysis; type: ADME, organism-based; settings: in vivo
# hERG (KCNH2) = hERG (KCNH2) (Homo sapiens, UniProt Q12809); test: Inhibition of human ERG at 3 uM by patch clamp method relative to control; type: toxicity
# Chain of hERG (KCNH2) (Q12809 whole entry): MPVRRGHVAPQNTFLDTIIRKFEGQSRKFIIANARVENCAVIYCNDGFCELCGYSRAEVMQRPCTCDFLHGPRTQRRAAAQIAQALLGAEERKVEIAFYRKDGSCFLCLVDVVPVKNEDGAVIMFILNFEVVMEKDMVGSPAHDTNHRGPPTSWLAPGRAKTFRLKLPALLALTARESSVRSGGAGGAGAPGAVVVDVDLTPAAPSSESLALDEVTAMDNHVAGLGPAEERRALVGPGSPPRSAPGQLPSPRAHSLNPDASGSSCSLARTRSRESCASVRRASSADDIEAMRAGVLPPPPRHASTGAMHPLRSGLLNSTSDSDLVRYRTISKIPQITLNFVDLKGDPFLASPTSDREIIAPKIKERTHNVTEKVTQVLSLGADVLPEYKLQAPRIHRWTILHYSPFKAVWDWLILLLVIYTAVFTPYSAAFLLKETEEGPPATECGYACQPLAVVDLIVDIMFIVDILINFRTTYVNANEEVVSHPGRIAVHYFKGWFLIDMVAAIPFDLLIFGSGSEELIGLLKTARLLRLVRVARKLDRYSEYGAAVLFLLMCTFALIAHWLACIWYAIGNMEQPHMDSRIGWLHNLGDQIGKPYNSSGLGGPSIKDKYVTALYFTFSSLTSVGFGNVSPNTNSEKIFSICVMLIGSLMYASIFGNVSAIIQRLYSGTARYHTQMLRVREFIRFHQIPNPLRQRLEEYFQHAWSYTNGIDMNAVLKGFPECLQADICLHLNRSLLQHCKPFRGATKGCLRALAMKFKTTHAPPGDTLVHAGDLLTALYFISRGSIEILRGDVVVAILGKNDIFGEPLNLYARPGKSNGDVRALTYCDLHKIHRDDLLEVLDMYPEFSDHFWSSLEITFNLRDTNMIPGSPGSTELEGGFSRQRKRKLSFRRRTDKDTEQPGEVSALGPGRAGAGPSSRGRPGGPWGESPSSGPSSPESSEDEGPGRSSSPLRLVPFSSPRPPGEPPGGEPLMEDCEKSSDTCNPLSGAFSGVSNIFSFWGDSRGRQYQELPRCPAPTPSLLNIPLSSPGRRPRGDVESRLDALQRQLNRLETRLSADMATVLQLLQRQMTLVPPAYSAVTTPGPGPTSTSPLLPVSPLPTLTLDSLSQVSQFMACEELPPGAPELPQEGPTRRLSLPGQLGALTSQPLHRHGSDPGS
# [33] = Metabolic stability in mouse liver microsomes assessed as intrinsic clearance at 1 uM incubated for 45 mins by LC-MS/MS method; type: ADME, Microsome; settings: read-out: CLH
compound,measurement,setting,value
O=C1CCN(c2cc(C(=O)N3CCC(CC4CCN(c5ccc(-c6cnc7[nH]cc(-c8cnn(CC(F)(F)F)c8)c7n6)cn5)CC4)CC3)ccc2Cl)C(=O)N1,Emax,[1],94%
same,Activity,MC-38 [2],Dose-dependent-effect; Twice Daily Dose Was Slightly Better Than Once Daily
same,AUC at 336 h,in vivo [3],151 µg·h/mL
same,Activity,Jurkat [4],inactive
same,Cmax at 336 h,in vivo [5],64.2 ng/mL
same,microsomal CLint at 1 µM,[6],38 µL/min/mg
same,Tmax,[7],8.67 h
same,Activity,MC-38 [8],0.47 g
same,Vz,[9],0.121 L/kg
same,Activity,MC-38 [10],0.92 g
same,inhibition in vivo at 0.1 mg/kg,MC-38 [11],28.5%
same,Cmax at 24 h,in vivo [12],4900 ng/mL
same,Activity,MC-38 [13],752.98 mm3
same,clearance at 24 h,[14],6 mL/min/kg
same,Drug uptake,[15],Active
same,Drug uptake,[16],Active
same,Drug metabolism,[17],metabolite_detected
same,"half-life at 1.5 h, 1 µM",in vitro [18],1.3 h
same,inhibition in vivo at 100 mg/kg,MC-38 [19],91%
same,"half-life at 0.75 h, 1 µM",in vitro [20],1.14 h
same,Drug uptake,[21],Active
same,Tmax,[22],7.5 h
same,Tmax,[23],8.67 h
same,Drug uptake,[24],Active
same,IC50,Cytochrome P450 2B6,> 10 µM
same,IC50,Cytochrome P450 2C19,> 10 µM
same,Activity,[25],Active
same,clearance,[26],27 mL/min/kg
same,"fraction unbound at 6 h, 10 µM",[27],0.0025
same,Cmax at 24 h,in vivo [28],3180 ng/mL
same,Emax,Jurkat [29],82.1%
same,Cmax at 24 h,in vivo [30],11200 ng/mL
same,Activity,MC-38 [31],338.13 mm3
same,Tmax,[32],3.17 h
same,inhibition at 3 µM,hERG (KCNH2),4.36%
same,microsomal CLint at 1 µM,[33],13.4 µL/min/mg
